Strand notation (5' to 3'): a small letter for the sugar, then the base; units joined by * are phosphorothioate-linked, units joined directly phosphodiester-linked; [ ] holds rarer units or linkages, { } end groups; capitals alone tell only the bases. k = constrained ethyl (cEt); [5mC] = 5-methylcytosine; d = 2'-deoxy (DNA)
Each substance was assayed on human SMAD7 mRNA (assay: Antisense inhibition of human SMAD7 mRNA expression in Hep3B cells by 3-10-3 cEt gapmers, 10,000 nM, electroporation (Example 2)). Details: Hep3B cells, 10,000 nM antisense oligonucleotide, electroporation, approximately 24 hours, RT-PCR primer probe set RTS5062, relative to untreated control cells.
Assay type: cell-based
How it was run: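 Percent inhibition of SMAD7 mRNA, relative to untreated cells, after ~24 h exposure of electroporated Hep3B cells to 10,000 nM cEt gapmer; levels by qRT-PCR, corrected for total RNA.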
For “798878 (k[5mC]*kT*kG*d[5mC]*dT*dG*d[5mC]*dA*dT*dA*dA*dA*d[5mC]*kT*k[5mC]*kG; antisense) [compound 798878]”, the “% Inhibition” value was 49%. For “799876 (kG*k[5mC]*k[5mC]*dA*dG*dG*dG*d[5mC]*d[5mC]*dG*d[5mC]*dA*d[5mC]*kT*kG*kT; antisense) [compound 799876]”, the “% Inhibition” value was 55%. For “798839 (kG*kT*kT*dG*dT*d[5mC]*d[5mC]*dG*dA*dA*dT*dT*dG*kA*kG*k[5mC]; antisense) [compound 798839]”, the “% Inhibition” value was 47%.

Same assay, conditions: Hep3B cells, electroporation with 10,000 nM antisense oligonucleotide, approximately 24 hours, RTS5062, percent inhibition of SMAD7 mRNA relative to untreated control cells
For “799590 (k[5mC]*kT*kG*d[5mC]*dA*dG*dT*d[5mC]*dT*dT*d[5mC]*dT*dG*kA*kA*kG; antisense) [compound 799590]”, the “% Inhibition” value was 9%. With “799532 (kG*k[5mC]*kA*dG*dA*dA*dG*dG*d[5mC]*d[5mC]*dA*d[5mC]*d[5mC]*k[5mC]*k[5mC]*k[5mC]; antisense) [compound 799532]” the “% Inhibition” value was 21%. In the case of “799272 (antisense kA*kT*kT*dA*d[5mC]*dT*d[5mC]*dG*dA*dG*dT*d[5mC]*dA*kG*kG*k[5mC]) [compound 799272]”, the “% Inhibition” value is reported as 55%. For “799707 (antisense kA*kA*kA*d[5mC]*dT*dT*dG*dT*dG*dG*dT*dA*dA*kA*kA*kT) [compound 799707]”, the “% Inhibition” value was 38%. In the case of “790714 (kA*kG*k[5mC]*d[5mC]*dA*dG*dT*dT*dA*dA*dT*d[5mC]*dA*kT*kT*kA; antisense) [compound 790714]”, the “% Inhibition” value is reported as 11%. “799611 (kT*kG*kT*dG*dA*dA*dA*dG*dA*dG*dG*d[5mC]*dT*k[5mC]*kA*kG; antisense) [compound 799611]” was tested, and the “% Inhibition” value was 37%. With “799805 (k[5mC]*kG*kA*dG*dA*dA*dG*dA*dG*dT*dA*dA*dT*kT*k[5mC]*kA; antisense) [compound 799805]” the “% Inhibition” value was 1%. “799724 (antisense kA*kA*k[5mC]*dT*dT*dG*dG*dG*d[5mC]*dA*dA*dG*dG*kA*k[5mC]*kA) [compound 799724]” was tested, and the “% Inhibition” value was 24%. With “799670 (antisense kT*k[5mC]*kT*dG*dA*dG*dA*d[5mC]*dT*dA*dT*dG*dA*k[5mC]*kA*kG) [compound 799670]” the “% Inhibition” value was 51%.

Same assay, conditions: Hep3B cells, electroporation with 10,000 nM antisense oligonucleotide, approximately 24 hours, SMAD7 mRNA by RT-PCR (RTS5062), relative to untreated control cells
With “798753 (kT*kG*k[5mC]*dA*dG*dT*d[5mC]*d[5mC]*dA*dG*dG*d[5mC]*dG*kG*k[5mC]*k[5mC]; antisense) [compound 798753]” the “% Inhibition” value was 0%. “830043 (kT*kT*kG*dG*d[5mC]*dA*dG*dG*dT*dT*dA*dA*dT*k[5mC]*kA*k[5mC]; antisense) [compound 830043]” was tested, and the “% Inhibition” value was 45%. For “799909 (antisense kA*kT*kT*d[5mC]*dA*dT*dA*dA*dT*dA*dT*dT*dG*kA*k[5mC]*kA) [compound 799909]”, the “% Inhibition” value was 36%. With “830200 (antisense kG*kA*kA*dG*dG*d[5mC]*dT*dA*d[5mC]*dA*d[5mC]*d[5mC]*dA*kA*kA*kG) [compound 830200]” the “% Inhibition” value was 33%. For “830064 (kA*kT*kG*dG*dT*dG*d[5mC]*dT*d[5mC]*dT*dG*d[5mC]*d[5mC]*k[5mC]*kT*kT; antisense) [compound 830064]”, the “% Inhibition” value was 29%. In the case of “799388 (antisense kT*kT*kG*d[5mC]*dA*dG*dA*dA*dT*dT*d[5mC]*d[5mC]*dA*kG*kG*kA) [compound 799388]”, the “% Inhibition” value is reported as 41%. In the case of “830072 (kA*kT*k[5mC]*dA*dA*dA*dG*dG*dT*dA*dA*dG*d[5mC]*k[5mC]*kA*kG; antisense) [compound 830072]”, the “% Inhibition” value is reported as 28%. In the case of “798697 (antisense kA*k[5mC]*k[5mC]*dT*d[5mC]*d[5mC]*d[5mC]*d[5mC]*d[5mC]*dT*dG*d[5mC]*dG*k[5mC]*k[5mC]*k[5mC]) [compound 798697]”, the “% Inhibition” value is reported as 23%. With “799333 (kA*kG*kA*dA*dA*dA*d[5mC]*d[5mC]*dT*dG*dG*dA*dA*kG*kG*kG; antisense) [compound 799333]” the “% Inhibition” value was 24%.

Same assay, conditions: Hep3B cells, electroporation with 10,000 nM antisense oligonucleotide, approximately 24 hours, primer probe set RTS5062, relative to untreated control cells
In the case of “799039 (kT*kG*k[5mC]*dT*dG*dG*dG*dA*d[5mC]*d[5mC]*d[5mC]*d[5mC]*dA*kG*k[5mC]*k[5mC]; antisense) [compound 799039]”, the “% Inhibition” value is reported as 19%. With “799112 (antisense kG*kG*kG*dA*dG*d[5mC]*dA*dG*dG*d[5mC]*dA*dG*dT*kG*k[5mC]*kT) [compound 799112]” the “% inhibition of SMAD7 mRNA expression” value was 58%. With “799083 (antisense kG*kG*kA*dA*dG*d[5mC]*d[5mC]*d[5mC]*dA*dT*d[5mC]*dT*d[5mC]*kA*kG*kG) [compound 799083]” the “% inhibition of SMAD7 mRNA expression” value was 0%. In the case of “790489 (k[5mC]*kT*k[5mC]*dT*dT*dG*dA*d[5mC]*dT*dT*d[5mC]*d[5mC]*dG*kA*kG*kG; antisense) [compound 790489]”, the “% inhibition of SMAD7 mRNA expression” value is reported as 0%. In the case of “799145 (antisense k[5mC]*kT*kT*dG*dG*dG*dT*dT*dA*dT*dG*dA*d[5mC]*kG*kG*kA) [compound 799145]”, the “% inhibition of SMAD7 mRNA expression” value is reported as 46%. For “799323 (antisense k[5mC]*k[5mC]*kA*dG*dG*dA*dG*dG*dG*dT*dA*dT*dG*k[5mC]*kA*k[5mC]) [compound 799323]”, the “% inhibition of SMAD7 mRNA expression” value was 60%. “799068 (antisense kG*kA*k[5mC]*dA*dA*dG*dG*dA*dT*dG*dA*dA*dA*kA*kT*kA) [compound 799068]” was tested, and the “% inhibition of SMAD7 mRNA expression” value was 49%. “799483 (antisense k[5mC]*kA*kA*dA*dG*dG*dA*dA*dA*dA*dG*d[5mC]*d[5mC]*kG*kG*kG) [compound 799483]” was tested, and the “% inhibition of SMAD7 mRNA expression” value was 35%. With “799133 (antisense kG*k[5mC]*kT*dA*dA*dG*d[5mC]*dA*dT*dG*dT*d[5mC]*d[5mC]*k[5mC]*kT*k[5mC]) [compound 799133]” the “% Inhibition” value was 17%. For “799028 (kA*kG*kA*d[5mC]*dA*d[5mC]*d[5mC]*dG*d[5mC]*dT*dT*dG*dG*kG*kA*k[5mC]; antisense) [compound 799028]”, the “% inhibition of SMAD7 mRNA expression” value was 37%. For “799048 (antisense kT*k[5mC]*k[5mC]*dT*dT*dG*dA*dT*dG*dA*dG*dG*dG*kA*kG*kA) [compound 799048]”, the “% inhibition of SMAD7 mRNA expression” value was 60%. With “798995 (antisense kA*k[5mC]*kT*d[5mC]*dA*d[5mC]*dA*d[5mC]*dT*d[5mC]*dA*d[5mC]*dA*k[5mC]*kA*k[5mC]) [compound 798995]” the “% Inhibition” value was 0%. For “799193 (antisense kT*kA*kA*dA*dT*dT*dT*d[5mC]*d[5mC]*dA*dA*dT*dG*kA*kG*kA) [compound 799193]”, the “% Inhibition” value was 43%. In the case of “798810 (kA*kA*kG*dT*dT*dG*dG*dG*dA*dA*dT*d[5mC]*dT*kG*kA*kA; antisense) [compound 798810]”, the “% inhibition of SMAD7 mRNA expression” value is reported as 0%. In the case of “798703 (antisense kG*kT*k[5mC]*d[5mC]*dG*dT*d[5mC]*dG*d[5mC]*d[5mC]*d[5mC]*d[5mC]*dT*kT*k[5mC]*kT) [compound 798703]”, the “% inhibition of SMAD7 mRNA expression” value is reported as 68%. “799403 (antisense kG*k[5mC]*kT*dA*dA*dG*dG*dT*d[5mC]*dA*d[5mC]*dT*dG*kT*kT*k[5mC]) [compound 799403]” was tested, and the “% inhibition of SMAD7 mRNA expression” value was 0%.

Same assay, conditions: Hep3B cells, electroporation, 10,000 nM antisense oligonucleotide, approximately 24 hours, RTS5062, relative to untreated control cells
“799836 (antisense kA*kG*kA*dT*dA*dT*d[5mC]*dG*dG*d[5mC]*d[5mC]*d[5mC]*d[5mC]*k[5mC]*kT*kG) [compound 799836]” was tested, and the “% inhibition of SMAD7 mRNA expression” value was 61%. With “799520 (antisense kG*kA*kT*dT*dG*dA*dT*dG*dT*dT*dG*dG*dG*k[5mC]*kT*kG) [compound 799520]” the “% inhibition of SMAD7 mRNA expression” value was 51%. In the case of “799657 (antisense kT*kA*k[5mC]*dA*dA*dG*dT*dG*dG*dT*dT*dG*d[5mC]*kT*kG*kG) [compound 799657]”, the “% inhibition of SMAD7 mRNA expression” value is reported as 62%. For “799634 (k[5mC]*kA*kG*dA*d[5mC]*dT*dG*d[5mC]*d[5mC]*dA*dA*dA*dT*k[5mC]*kA*k[5mC]; antisense) [compound 799634]”, the “% inhibition of SMAD7 mRNA expression” value was 23%. “790719 (kG*kG*kA*d[5mC]*dA*dG*dT*d[5mC]*dT*dG*d[5mC]*dT*dG*kT*kG*kG; antisense) [compound 790719]” was tested, and the “% inhibition of SMAD7 mRNA expression” value was 86%. In the case of “799320 (antisense kG*kT*k[5mC]*dT*dG*d[5mC]*dT*dG*dT*dG*dG*dA*dT*kT*kT*kG) [compound 799320]”, the “% inhibition of SMAD7 mRNA expression” value is reported as 0%.

Same assay, conditions: SMAD7 mRNA, Hep3B cells, 10,000 nM antisense oligonucleotide, electroporation, approximately 24 hours, primer probe set RTS5062, relative to untreated control cells
“772623 (kA*kG*kT*d[5mC]*d[5mC]*dG*dG*dG*dT*dT*dG*dT*d[5mC]*k[5mC]*kA*kG; antisense) [compound 772623]” was tested, and the “% Inhibition” value was 42%. With “829755 (antisense kT*kT*k[5mC]*dT*d[5mC]*d[5mC]*d[5mC]*d[5mC]*dG*d[5mC]*dA*dG*d[5mC]*kT*k[5mC]*kG) [compound 829755]” the “% Inhibition” value was 52%. “790491 (kG*kT*kA*dA*dG*dA*dT*dT*d[5mC]*dA*d[5mC]*dA*dG*k[5mC]*kA*kA; antisense) [compound 790491]” was tested, and the “% Inhibition” value was 56%. “829742 (antisense k[5mC]*kG*k[5mC]*d[5mC]*dG*dG*dA*d[5mC]*dG*dA*dG*d[5mC]*dG*k[5mC]*kA*kG) [compound 829742]” was tested, and the “% Inhibition” value was 43%. For “829764 (antisense k[5mC]*k[5mC]*kG*d[5mC]*dT*d[5mC]*d[5mC]*dT*dT*d[5mC]*dA*dG*dT*kT*kT*k[5mC]) [compound 829764]”, the “% Inhibition” value was 44%.

Same assay, conditions: SMAD7 mRNA, Hep3B cells, electroporation with 10,000 nM antisense oligonucleotide, approximately 24 hours, primer probe set RTS5062, relative to untreated control cells
With “829981 (kG*kT*kG*dA*dT*dT*dG*d[5mC]*d[5mC]*dT*dT*dG*dA*kT*kA*kT; antisense) [compound 829981]” the “% Inhibition” value was 14%. With “829987 (k[5mC]*k[5mC]*kG*d[5mC]*dG*dA*dG*dG*d[5mC]*dG*dG*dT*dG*kA*kT*kT; antisense) [compound 829987]” the “% Inhibition” value was 6%.

— US10517889B2, “Modulators of SMAD7 expression” (Ionis Pharmaceuticals, Inc., priority 2017, dated 2019)
